Target: AMPK
Experiment: AMPK activation, enzyme-linked immunosorbent assay
Type: biochemical
Conditions: EC50 for AMPK activation, ELISA
Procedure, shortened: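 Read-out: immunodetected kinase activation after compound exposure, run with commercial kit reagents.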

EC50 [nM]	Compound
< 500	COc1ccc(C(=O)C2CCN(C(=O)c3ccc(C(=O)NC4CCN(Cc5cccc(OC(F)(F)F)c5)CC4)cn3)CC2)cc1 [Compound 424, 6-(4-(4-methoxybenzoyl)piperidine-1-carbonyl)-N-(1-(3-(trifluoromethoxy)benzyl)piperidin-4-yl)nicotinamide]
< 500	COc1ccc(C(=O)C2CCN(C(=O)c3ccc(C(=O)NC4CCN(Cc5cccc(OC)c5)CC4)cn3)CC2)cc1 [Compound 425, 6-(4-(4-methoxybenzoyl)piperidine-1-carbonyl)-N-(1-(3-methoxybenzyl)piperidin-4-yl)nicotinamide]
< 500	COc1ccc(C(=O)C2CCN(C(=O)c3ccc(C(=O)N[C@@H]4CCN(Cc5cc(C)on5)C[C@@H]4F)cn3)CC2)cc1 [Compound 426, N-((3S,4R)-3-fluoro-1-((5-methylisoxazol-3-yl)methyl)piperidin-4-yl)-6-(4-(4-methoxybenzoyl)piperidine-1-carbonyl)nicotinamide]
1000 to 5000	COc1ccc(C(=O)C2CCN(C(=O)c3ccc(C(=O)N[C@@H]4CCN(Cc5csc(C)n5)C[C@@H]4F)cn3)CC2)cc1 [Compound 427, N-((3S,4R)-3-fluoro-1-((2-methylthiazol-4-yl)methyl)piperidin-4-yl)-6-(4-(4-methoxybenzoyl)piperidine-1-carbonyl)nicotinamide]
500 to 1000	CC(=O)Nc1ccc(OC2CCN(C(=O)c3ccc(C(=O)NC4CCN(Cc5cccc(OC(F)(F)F)c5)CC4)cn3)CC2)cc1 [Compound 428, 6-(4-(4-acetamidophenoxy)piperidine-1-carbonyl)-N-(1-(3-(trifluoromethoxy)benzyl)piperidin-4-yl)nicotinamide]
500 to 1000	N#Cc1ccc(CN2CCC(NC(=O)c3ccc(C(=O)N4CCC(Oc5cccc(NC(=O)C6CC6)c5)CC4)nc3)CC2)cc1 [Compound 431, N-(1-(4-cyanobenzyl)piperidin-4-yl)-6-(4-(3-(cyclopropanecarboxamido)phenoxy)piperidine-1-carbonyl)nicotinamide]
500 to 1000	O=C(NC1CCN(Cc2ccc(F)cc2)CC1)c1ccc(C(=O)N2CCC(Oc3cccc(NC(=O)C4CC4)c3)CC2)nc1 [Compound 432, 6-(4-(3-(cyclopropanecarboxamido)phenoxy)piperidine-1-carbonyl)-N-(1-(4-fluorobenzyl)piperidin-4-yl)nicotinamide]
< 500	O=C(Nc1ccc(Oc2ccc(F)cc2)nc1)c1ccc(C(=O)N2CCC(Oc3cccc(NC(=O)C4CC4)c3)CC2)nc1 [Compound 433, 6-(4-(3-(cyclopropanecarboxamido)phenoxy)piperidine-1-carbonyl)-N-(6-(4-fluorophenoxy)pyridin-3-yl)nicotinamide]
< 500	N#Cc1ccc(O[C@H]2CC[C@@H](NC(=O)c3ccc(C(=O)N4CCC(Oc5cccc(NC(=O)C6CC6)c5)CC4)nc3)CC2)cc1 [Compound 434, N-((cis)-4-(4-cyanophenoxy)cyclohexyl)-6-(4-(3-(cyclopropanecarboxamido)phenoxy)piperidine-1-carbonyl)nicotinamide]
< 500	COc1ccc(CN2CCC(NC(=O)c3ccc(C(=O)N4CCC(Oc5cccc(NC(=O)C6CC6)c5)CC4)nc3)CC2)cc1 [Compound 435, 6-(4-(3-(cyclopropanecarboxamido)phenoxy)piperidine-1-carbonyl)-N-(1-(4-methoxybenzyl)piperidin-4-yl)nicotinamide]
< 500	N#Cc1ccc(CN2CCC(NC(=O)c3ccc(C(=O)N4CCC(Oc5ccc(SC(F)(F)F)cc5)CC4)nn3)CC2)cc1 [Compound 436, N-(1-(4-cyanobenzyl)piperidin-4-yl)-6-(4-(4-(trifluoromethylthio)phenoxy)piperidine-1-carbonyl)pyridazine-3-carboxamide]
< 500	O=C(NC1CCN(Cc2ccc(OC(F)(F)F)cc2)CC1)c1ccc(C(=O)N2CCC(Oc3cccc(NC(=O)C4CC4)c3)CC2)nc1 [Compound 438, 6-(4-(3-(cyclopropanecarboxamido)phenoxy)piperidine-1-carbonyl)-N-(1-(4-(trifluoromethoxy)benzyl)piperidin-4-yl)nicotinamide]
< 500	COc1ccc(CN2CCC(NC(=O)c3ccc(C(=O)N4CCC(C(=O)c5ccc(N6CCCC6)cc5)CC4)nc3)CC2)cc1 [Compound 439, N-(1-(4-methoxybenzyl)piperidin-4-yl)-6-(4-(4-(pyrrolidin-1-yl)benzoyl)piperidine-1-carbonyl)nicotinamide]
< 500	O=C(NC1CCN(Cc2ccc(OC(F)(F)F)cc2)CC1)c1ccc(C(=O)N2CCC(C(=O)c3ccc(N4CCCC4)cc3)CC2)nc1 [Compound 440, 6-(4-(4-(pyrrolidin-1-yl)benzoyl)piperidine-1-carbonyl)-N-(1-(4-(trifluoromethoxy)benzyl)piperidin-4-yl)nicotinamide]
< 500	O=C(NC1CCN(Cc2cccc(OC(F)(F)F)c2)CC1)c1ccc(C(=O)N2CCC(C(=O)c3ccc(N4CCCC4)cc3)CC2)nc1 [Compound 441, 6-(4-(4-(pyrrolidin-1-yl)benzoyl)piperidine-1-carbonyl)-N-(1-(3-(trifluoromethoxy)benzyl)piperidin-4-yl)nicotinamide]
< 500	N#Cc1ccc(O[C@H]2CC[C@@H](NC(=O)c3ccc(C(=O)N4CCC(C(=O)c5ccc(N6CCCC6)cc5)CC4)nc3)CC2)cc1 [Compound 442, N-((cis)-4-(4-cyanophenoxy)cyclohexyl)-6-(4-(4-(pyrrolidin-1-yl)benzoyl)piperidine-1-carbonyl)nicotinamide]
< 500	COc1ccc(CN2CCC(NC(=O)c3ccc(C(=O)N4CCC(C(=O)c5ccc(N6CCCC6)cc5)CC4)nc3)CC2)cc1F [Compound 443, N-(1-(3-fluoro-4-methoxybenzyl)piperidin-4-yl)-6-(4-(4-(pyrrolidin-1-yl)benzoyl)piperidine-1-carbonyl)nicotinamide]
< 500	O=C(NC1CCN(Cc2ccc(N3CCCC3)cc2)CC1)c1ccc(C(=O)N2CCC(C(=O)c3ccc(N4CCCC4)cc3)CC2)nc1 [Compound 444, 6-(4-(4-(pyrrolidin-1-yl)benzoyl)piperidine-1-carbonyl)-N-(1-(4-(pyrrolidin-1-yl)benzyl)piperidin-4-yl)nicotinamide]
< 500	CC(C)Oc1ccc(CN2CCC(NC(=O)c3ccc(C(=O)N4CCC(C(=O)c5ccc(N6CCCC6)cc5)CC4)nc3)CC2)cc1 [Compound 446, N-(1-(4-isopropoxybenzyl)piperidin-4-yl)-6-(4-(4-(pyrrolidin-1-yl)benzoyl)piperidine-1-carbonyl)nicotinamide]
< 500	N#Cc1ccc(CN2CCC(NC(=O)c3ccc(C(=O)N4CCC(C(=O)c5ccc(N6CCCC6)cc5)CC4)nc3)CC2)cc1F [Compound 447, N-(1-(4-cyano-3-fluorobenzyl)piperidin-4-yl)-6-(4-(4-(pyrrolidin-1-yl)benzoyl)piperidine-1-carbonyl)nicotinamide]
1000 to 5000	N#Cc1ccc(CN2CCC(NC(=O)c3ccc(C(=O)N4CCC(Oc5ccc(NS(=O)(=O)C6CC6)cc5)CC4)nc3)CC2)cc1 [Compound 448, N-(1-(4-cyanobenzyl)piperidin-4-yl)-6-(4-(4-(cyclopropanesulfonamido)phenoxy)piperidine-1-carbonyl)nicotinamide]
1000 to 5000	O=C(Nc1ccc(Oc2ccc(F)cc2)nc1)c1ccc(C(=O)N2CCC(Oc3ccc(NS(=O)(=O)C4CC4)cc3)CC2)nc1 [Compound 449, 6-(4-(4-(cyclopropanesulfonamido)phenoxy)piperidine-1-carbonyl)-N-(6-(4-fluorophenoxy)pyridin-3-yl)nicotinamide]
< 500	N#Cc1ccc(CN2CCC(NC(=O)c3ccc(C(=O)N4CCC(Oc5ccc(S(=O)(=O)C(F)(F)F)cc5)CC4)nc3)CC2)cc1 [Compound 450, N-(1-(4-cyanobenzyl)piperidin-4-yl)-6-(4-(4-(trifluoromethylsulfonyl)phenoxy)piperidine-1-carbonyl)nicotinamide]
< 500	COc1ccc(C(=O)C2CCN(C(=O)c3ccc(C(=O)N[C@@H]4CCN(Cc5ccc(C#N)cc5)C[C@H]4F)cn3)CC2)cc1 [Compound 452, N-((3R,4R)-1-(4-cyanobenzyl)-3-fluoropiperidin-4-yl)-6-(4-(4-methoxybenzoyl)piperidine-1-carbonyl)nicotinamide]
< 500	COc1ccc(C(=O)C2CCN(C(=O)c3ccc(C(=O)N[C@H]4CCN(Cc5ccc(C#N)cc5)C[C@@H]4F)cn3)CC2)cc1 [Compound 453, N-((3S,4S)-1-(4-cyanobenzyl)-3-fluoropiperidin-4-yl)-6-(4-(4-methoxybenzoyl)piperidine-1-carbonyl)nicotinamide]
< 500	O=C(NC1CCN(Cc2ccc(OC(F)(F)F)cc2)CC1)c1ccc(C(=O)N2CCC(Oc3ccc(C(=O)C4CC4)cc3)CC2)nc1 [Compound 455, 6-(4-(4-(cyclopropanecarbonyl)phenoxy)piperidine-1-carbonyl)-N-(1-(4-(trifluoromethoxy)benzyl)piperidin-4-yl)nicotinamide]
< 500	N#Cc1ccc(CN2CCC(NC(=O)c3ccc(C(=O)N4CCC(Oc5ccc(C(=O)C6CC6)cc5)CC4)nc3)CC2)cc1 [Compound 456, N-(1-(4-cyanobenzyl)piperidin-4-yl)-6-(4-(4-(cyclopropanecarbonyl)phenoxy)piperidine-1-carbonyl)nicotinamide]
< 500	O=C(Nc1ccc(Oc2ccc(F)cc2)nc1)c1ccc(C(=O)N2CCC(Oc3ccc(C(=O)C4CC4)cc3)CC2)nc1 [Compound 457, 6-(4-(4-(cyclopropanecarbonyl)phenoxy)piperidine-1-carbonyl)-N-(6-(4-fluorophenoxy)pyridin-3-yl)nicotinamide]
< 500	COc1ccc(CN2CCC(NC(=O)c3ccc(C(=O)N4CCC(Oc5ccc(C(=O)C6CC6)cc5)CC4)nc3)CC2)cc1 [Compound 458, 6-(4-(4-(cyclopropanecarbonyl)phenoxy)piperidine-1-carbonyl)-N-(1-(4-methoxybenzyl)piperidin-4-yl)nicotinamide]
< 500	CS(=O)(=O)c1ccc(OC2CCN(C(=O)c3ccc(C(=O)Nc4ccc(Oc5ccc(C#N)cc5)nc4)cn3)CC2)cc1 [Compound 459, N-(6-(4-cyanophenoxy)pyridin-3-yl)-6-(4-(4-(methylsulfonyl)phenoxy)piperidine-1-carbonyl)nicotinamide]
